Columns and labels:
[1] = cited from earlier work
P388 leukemia = details: NCI Report on NSC 369397; cited from earlier work
[2] = tested on: chloroquine-sensitive P. falciparum (NF54); assay: Antimalarial screening, [3H]hypoxanthine incorporation; format: cell-based, Plasmodium falciparum; details: Plasmodium falciparum, NF54, chloroquine-sensitive P. falciparum (NF54); read-out: IC50
Procedure: Activity was determined by measuring the incorporation of [^3H]hypoxanthine, by the methods of Desjardins and Milhouse, with the following modifications, see […].; Haynes, […]. Antimicrob. Agents Chemother., 16: 710 (1979); Milhous, W. K.; Weatherly, […].; Antimicrob. Agents Chemother., 27: 525 (1985). […] Calbiochem #391338), 27 mM NaHCO3 (Gibco BRL # 11810-025), and 10% heat-inactivated human type O+serum (Interstate Blood Bank, Inc.), under 3% O2, 4% CO2, and 93% N2-Parasitemia was maintained at 0.05-3% and doubling time at approximately 15 hours by twice weekly change of medium and replenishment with fresh erythrocytes. […] Sigma-Aldrich #27,043-1). DMSO solutions were diluted 500-fold in medium, serially diluted in 0.2% DMSO in medium (to maintain constant solvent concentration), then 100 μL aliquots were pipetted into microtiter plate wells (Costar3595). […] Cells were harvested (Brandel MB-48R) onto GF-C glass filters (Brandel). The filters were washed five times with 3 mL water per sample spot, dried under a heat lamp, and counted (Beckman Model LS-6500) in scintillation cocktail (ICN Cytoscint). Decays per minute (dpm) values were downloaded and analyzed (Power Macintosh 7200/90; Microsoft Excel 5.0), to yield the mean and standard deviation at each drug concentration.

P. falciparum = details: two Hanian strains; compared with chloroquine; cited from earlier work
60 cell line panel = details: 60 lines, nine subpanels; later anticancer studies; cited from earlier work

C[C@@H]1CC[C@H]2[C@@H](C)C(=O)O[C@@H]3O[C@]4(C)CC[C@@H]1[C@]32OO4 [Artemisinin, artemisinin]
solubility in water in words [1]: insolubility in water
activity in words (P388 leukemia): inactive
IC50 [2]: 10 nM
potency in words (P. falciparum): comparable to that of chloroquine
anticancer activity in words (60 cell line panel): very little anticancer activity

Reference: patent US20020055528A1, “Artemisinin analogs having antimalarial, antiproliferative, and antitumor activities and chemoselective methods of making the same” (priority 1999, published 2002)
